The values that follow come from PMC3901242, “Determining Enzyme Kinetics for Systems Biology with Nuclear Magnetic Resonance Spectroscopy” (Metabolites, 2012).

The test addresses T1, phosphofructokinase (PFK, EC 2.7.1.11) (Escherichia coli, UniProt P0A796).
T1 construct: gene pfkA; native enzyme in whole-cell extract of mid-log micro-aerobic cells (sonication or glass beads), not purified; PFK-1 tetrameric; minor PFK-2 (pfkB) may be present
T1 sequence (P0A796 1-320): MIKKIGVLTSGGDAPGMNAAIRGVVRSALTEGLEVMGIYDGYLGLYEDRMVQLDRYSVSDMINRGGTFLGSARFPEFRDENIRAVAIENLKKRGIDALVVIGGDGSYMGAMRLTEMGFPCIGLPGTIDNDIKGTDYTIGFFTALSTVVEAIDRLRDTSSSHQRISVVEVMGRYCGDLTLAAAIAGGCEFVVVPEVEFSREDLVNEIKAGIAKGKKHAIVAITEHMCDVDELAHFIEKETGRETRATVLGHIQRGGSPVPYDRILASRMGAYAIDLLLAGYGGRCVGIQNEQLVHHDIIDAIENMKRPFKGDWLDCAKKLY
The experiment in a line: […]-NMR progress curves, global fit to irreversible bi-substrate Hill equation with negative allosteric modifier. The following applies: allosteric inhibitor; co-substrates F6P and ATP; PEP 4 and 8 mM initial; 1 mM Mg2+; 100 mM PIPES pH 7.2, 25 °C; cell extract. The class given is biochemical.

With `C=C(OP(=O)(O)O)C(=O)O` [PEP], the “Fitted parameters ^b” value turned out to be 0.0863 ± 0.0001 mM.
